Reference: US20170050957A1, “4-AMINO-6-(HETEROCYCLIC)PICOLINATES AND 6-AMINO-2-(HETEROCYCLIC)PYRIMIDINE-4-CARBOXYLATES AND THEIR USE AS HERBICIDES” (Dow AgroSciences LLC, priority 2013, published 2017)
Where two headings read alike, the source gives them in different places.

Tests used:
[1] = tested on: Key Broadleaf Weed and Crop Species; test: Post-emergent Test II herbicidal activity (Table 15); type: in vivo; details: post-emergence, 336 h, 14 d; for pest or weed control at 35 g/ha: 35 g ai/ha; for pest or weed control at 70 g/ha: 70 g ai/ha; for pest or weed control at 140 g/ha: 140 g ai/ha
Summary of the method: (§1)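 Herbicidal effect scored as percent visual injury, 14 d after post-emergent application. Spray solutions contained acetone, DMSO, isopropyl alcohol, crop oil concentrate and surfactant, applied at 187 L/ha to young plants (1-2 true leaves).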

[2] = tested on: Key Grass and Sedge Weeds as well as Grass Crops; test: Post-emergent Test II herbicidal activity (Table 16); type: in vivo; details: post-emergence, 336 h, 14 d; for pest or weed control at 35 g/ha: 35 g ai/ha; for pest or weed control at 70 g/ha: 70 g ai/ha; for pest or weed control at 140 g/ha: 140 g ai/ha
Summary of the method: as §1

[3] = Abutilon theophrasti, velvetleaf (Abutilon theophrasti), read-out: Visual Growth Reduction (%) 14 Days After Application, ABUTH
[4] = Amaranthus retroflexus, redroot pigweed (Amaranthus retroflexus), read-out: Visual Growth Reduction (%) 14 Days After Application, AMARE
[5] = Brassica napus, oilseed rape, canola (Brassica napus), read-out: Visual Growth Reduction (%) 14 Days After Application, BRSNN
[6] = Chenopodium album, lambsquarters (Chenopodium album), read-out: Visual Growth Reduction (%) 14 Days After Application, CHEAL
[7] = Euphorbia heterophylla, wild poinsettia (Euphorbia heterophylla), read-out: Visual Growth Reduction (%) 14 Days After Application, EPHHL
[8] = Helianthus annuus, sunflower (Helianthus annuus), read-out: Visual Growth Reduction (%) 14 Days After Application, HELAN
[9] = Cyperus esculentus, yellow nutsedge (Cyperus esculentus), read-out: Visual Growth Reduction (%) 14 Days After Application, CYPES
[10] = Oryza sativa, rice (Oryza sativa), read-out: Visual Growth Reduction (%) 14 Days After Application, ORYSA
[11] = Setaria faberi, giant foxtail (Setaria faberi), read-out: Visual Growth Reduction (%) 14 Days After Application, SETFA
[12] = Triticum aestivum, wheat, spring (Triticum aestivum), read-out: Visual Growth Reduction (%) 14 Days After Application, TRZAS
[13] = Zea mays, maize, corn (Zea mays), read-out: Visual Growth Reduction (%) 14 Days After Application, ZEAMX
[14] = Echinochloa crus-galli, barnyardgrass (Echinochloa crus-galli), read-out: Visual Growth Reduction (%) 14 Days After Application, ECHCG

In the case of `COC(=O)c1nc(-c2ccc(Cl)c3occc23)nc(N)c1Cl` [Compound 2.20], the pest or weed control at 35 g/ha [1, 3] is reported as 45 to 59%, the pest or weed control at 70 g/ha [1, 3] is reported as 60 to 74% and the pest or weed control at 140 g/ha [1, 3] is reported as 60 to 74%. It also gave a pest or weed control at 35 g/ha [1, 4] of 95 to 100%, a pest or weed control at 70 g/ha [1, 4] of 95 to 100% and a pest or weed control at 140 g/ha [1, 4] of 95 to 100%. The pest or weed control at 35 g/ha [1, 5] was 0 to 29%, the pest or weed control at 70 g/ha [1, 5] was 0 to 29% and the pest or weed control at 140 g/ha [1, 5] was 30 to 44%. It also gave a pest or weed control at 35 g/ha [1, 6] of 85 to 94%, a pest or weed control at 70 g/ha [1, 6] of 95 to 100% and a pest or weed control at 140 g/ha [1, 6] of 95 to 100%. The pest or weed control at 35 g/ha [1, 7] was 0 to 29%, the pest or weed control at 70 g/ha [1, 7] was 0 to 29% and the pest or weed control at 140 g/ha [1, 7] was 0 to 29%. It also gave a pest or weed control at 35 g/ha [1, 8] of 85 to 94%, a pest or weed control at 70 g/ha [1, 8] of 95 to 100% and a pest or weed control at 140 g/ha [1, 8] of 95 to 100%. The pest or weed control at 35 g/ha [2, 9] was 0 to 29%, the pest or weed control at 70 g/ha [2, 9] was 0 to 29% and the pest or weed control at 140 g/ha [2, 9] was 0 to 29%. The pest or weed control at 35 g/ha [2, 10] was 0 to 29%, the pest or weed control at 70 g/ha [2, 10] was 0 to 29% and the pest or weed control at 140 g/ha [2, 10] was 0 to 29%. For the same compound, the pest or weed control at 35 g/ha [2, 11] was 0 to 29%, the pest or weed control at 70 g/ha [2, 11] was 30 to 44% and the pest or weed control at 140 g/ha [2, 11] was 60 to 74%. It also gave a pest or weed control at 35 g/ha [2, 12] of 0 to 29%, a pest or weed control at 70 g/ha [2, 12] of 0 to 29% and a pest or weed control at 140 g/ha [2, 12] of 0 to 29%. The pest or weed control at 35 g/ha [2, 13] was 0 to 29%, the pest or weed control at 70 g/ha [2, 13] was 0 to 29% and the pest or weed control at 140 g/ha [2, 13] was 0 to 29%.

`COC(=O)c1nc(-c2cc3[nH]ccc3cc2F)c(F)c(N)c1Cl` [Compound 1.13] showed a pest or weed control at 35 g/ha [1, 3] of 0 to 29%, a pest or weed control at 70 g/ha [1, 3] of 0 to 29% and a pest or weed control at 140 g/ha [1, 3] of 0 to 29%. For the same compound, the pest or weed control at 35 g/ha [1, 4] was 0 to 29%, the pest or weed control at 70 g/ha [1, 4] was 30 to 44% and the pest or weed control at 140 g/ha [1, 4] was 30 to 44%. For the same compound, the pest or weed control at 35 g/ha [1, 5] was 0 to 29%, the pest or weed control at 70 g/ha [1, 5] was 0 to 29% and the pest or weed control at 140 g/ha [1, 5] was 30 to 44%. It also gave a pest or weed control at 35 g/ha [1, 6] of 60 to 74%, a pest or weed control at 70 g/ha [1, 6] of 75 to 84% and a pest or weed control at 140 g/ha [1, 6] of 85 to 94%. The pest or weed control at 35 g/ha [1, 7] was 0 to 29%, the pest or weed control at 70 g/ha [1, 7] was 0 to 29% and the pest or weed control at 140 g/ha [1, 7] was 30 to 44%. For the same compound, the pest or weed control at 35 g/ha [1, 8] was 45 to 59%, the pest or weed control at 70 g/ha [1, 8] was 60 to 74% and the pest or weed control at 140 g/ha [1, 8] was 60 to 74%. The pest or weed control at 35 g/ha [2, 9] was 0 to 29%, the pest or weed control at 70 g/ha [2, 9] was 0 to 29% and the pest or weed control at 140 g/ha [2, 9] was 0 to 29%. The pest or weed control at 35 g/ha [2, 14] was 0 to 29%, the pest or weed control at 70 g/ha [2, 14] was 0 to 29% and the pest or weed control at 140 g/ha [2, 14] was 0 to 29%. The pest or weed control at 35 g/ha [2, 10] was 0 to 29%, the pest or weed control at 70 g/ha [2, 10] was 0 to 29% and the pest or weed control at 140 g/ha [2, 10] was 0 to 29%. The pest or weed control at 35 g/ha [2, 11] was 0 to 29%, the pest or weed control at 70 g/ha [2, 11] was 0 to 29% and the pest or weed control at 140 g/ha [2, 11] was 0 to 29%. It also gave a pest or weed control at 35 g/ha [2, 12] of 0 to 29%, a pest or weed control at 70 g/ha [2, 12] of 0 to 29% and a pest or weed control at 140 g/ha [2, 12] of 0 to 29%. It also gave a pest or weed control at 35 g/ha [2, 13] of 0 to 29%, a pest or weed control at 70 g/ha [2, 13] of 0 to 29% and a pest or weed control at 140 g/ha [2, 13] of 0 to 29%.

`COc1c(N)nc(-c2ccc3cc[nH]c3c2F)nc1C(=O)O` [Compound 1.35] showed a pest or weed control at 35 g/ha [1, 3] of 0 to 29%, a pest or weed control at 70 g/ha [1, 3] of 0 to 29% and a pest or weed control at 140 g/ha [1, 3] of 0 to 29%. The pest or weed control at 35 g/ha [1, 4] was 75 to 84%, the pest or weed control at 70 g/ha [1, 4] was 85 to 94% and the pest or weed control at 140 g/ha [1, 4] was 95 to 100%. It also gave a pest or weed control at 35 g/ha [1, 5] of 95 to 100%, a pest or weed control at 70 g/ha [1, 5] of 95 to 100% and a pest or weed control at 140 g/ha [1, 5] of 95 to 100%. For the same compound, the pest or weed control at 35 g/ha [1, 6] was 0 to 29%, the pest or weed control at 70 g/ha [1, 6] was 0 to 29% and the pest or weed control at 140 g/ha [1, 6] was 85 to 94%. It also gave a pest or weed control at 35 g/ha [1, 7] of 75 to 84%, a pest or weed control at 70 g/ha [1, 7] of 75 to 84% and a pest or weed control at 140 g/ha [1, 7] of 85 to 94%. It also gave a pest or weed control at 35 g/ha [1, 8] of 30 to 44%, a pest or weed control at 70 g/ha [1, 8] of 60 to 74% and a pest or weed control at 140 g/ha [1, 8] of 95 to 100%. The pest or weed control at 35 g/ha [2, 9] was 0 to 29%, the pest or weed control at 70 g/ha [2, 9] was 0 to 29% and the pest or weed control at 140 g/ha [2, 9] was 0 to 29%. For the same compound, the pest or weed control at 35 g/ha [2, 14] was 0 to 29%, the pest or weed control at 70 g/ha [2, 14] was 0 to 29% and the pest or weed control at 140 g/ha [2, 14] was 0 to 29%. The pest or weed control at 35 g/ha [2, 10] was 0 to 29%, the pest or weed control at 70 g/ha [2, 10] was 0 to 29% and the pest or weed control at 140 g/ha [2, 10] was 0 to 29%. The pest or weed control at 35 g/ha [2, 11] was 0 to 29%, the pest or weed control at 70 g/ha [2, 11] was 0 to 29% and the pest or weed control at 140 g/ha [2, 11] was 0 to 29%. For the same compound, the pest or weed control at 35 g/ha [2, 12] was 0 to 29%, the pest or weed control at 70 g/ha [2, 12] was 30 to 44% and the pest or weed control at 140 g/ha [2, 12] was 45 to 59%. For the same compound, the pest or weed control at 35 g/ha [2, 13] was 0 to 29%, the pest or weed control at 70 g/ha [2, 13] was 0 to 29% and the pest or weed control at 140 g/ha [2, 13] was 0 to 29%.
